Measurements published in PubChem BioAssay (NCI).
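Abbreviation: GI50, concentration required for 50% inhibition of growth. TGI marks complete inhibition of growth.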

Tests used:
Test in all cases: NCI anticancer screen, dose series, 384-well format
[1] = system: CCRF-CEM leukemia
[2] = system: SNB-75 CNS
[3] = system: SR leukemia
[4] = system: LOX IMVI melanoma
[5] = system: UO-31 renal
[6] = system: NCI-H522 lung
[7] = system: SK-MEL-2 melanoma
[8] = system: TK-10 renal
[9] = system: HOP-92 NSCLC
[10] = system: BT-549 breast
[11] = system: SK-MEL-28 melanoma
[12] = system: OVCAR-5 ovarian
[13] = system: HCT-15 colon
[14] = system: A498 renal
[15] = system: OVCAR-3 ovarian
[16] = system: SNB-19 CNS
[17] = system: NCI/ADR-RES ovarian
[18] = system: NCI-H23 lung
[19] = system: M14 melanoma
[20] = system: 786-0 renal
[21] = system: HCT-116 colon
[22] = system: OVCAR-4 ovarian
[23] = system: NCI-H226 lung
[24] = system: NCI-H322M lung
[25] = system: DU-145 prostate
[26] = system: SF-295 CNS
[27] = system: SF-268 CNS
[28] = system: UACC-62 melanoma
[29] = system: T-47D breast
[30] = system: KM12 colon
[31] = system: RXF 393 renal
[32] = system: PC-3 prostate
[33] = system: MDA-MB-435 melanoma
[34] = system: HCC-2998 colon
[35] = system: K-562 leukemia
[36] = system: MCF7 breast
[37] = system: HT29 colon
[38] = system: SN12C renal
[39] = system: COLO 205 colon
[40] = system: MDA-MB-231 breast
[41] = system: CAKI-1 renal
[42] = system: HL-60(TB) leukemia
[43] = system: ACHN renal
[44] = system: IGROV1 ovarian
[45] = system: SK-MEL-5 melanoma
[46] = system: SF-539 CNS
[47] = system: HS 578T breast

c1ccc2c(NCCCN3CCN(CCCNc4c5ccccc5nc5ccccc45)CC3)c3ccccc3nc2c1 showed a GI50 [1] of 0.118 µM, a TGI [1] of 0.551 µM and a GI50 [2] of 0.361 µM. The TGI [2] was 1410 nM, the GI50 [3] was 0.155 µM and the TGI [3] was 0.328 µM. For the same compound, the GI50 [4] was 0.665 µM, the TGI [4] was 1.86 µM and the GI50 [5] was 1.78 µM. It also gave a TGI [5] of 4.05 µM, a GI50 [6] of 0.0647 µM and a TGI [6] of 0.26 µM. It also gave a GI50 [7] of 0.261 µM, a TGI [7] of 0.434 µM and a GI50 [8] of 0.605 µM. The TGI [8] was 3.16 µM, the GI50 [9] was 0.425 µM and the TGI [9] was 2450 nM. It also gave a GI50 [10] of 1.2 µM, a TGI [10] of 2570 nM and a GI50 [11] of 1.82 µM. The TGI [11] was 3.24 µM, the GI50 [12] was 0.378 µM and the TGI [12] was 2460 nM. It also gave a GI50 [13] of 2.58 µM, a TGI [13] of 8.97 µM and a GI50 [14] of 0.504 µM. For the same compound, the TGI [14] was 2.05 µM, the GI50 [15] was 0.651 µM and the TGI [15] was 2120 nM. The GI50 [16] was 0.433 µM, the TGI [16] was 6.93 µM and the GI50 [17] was 5.28 µM. It also gave a TGI [17] greater than 100 µM, a GI50 [18] of 0.327 µM and a TGI [18] of 1340 nM. It also gave a GI50 [19] of 1.32 µM, a TGI [19] of 2.63 µM and a GI50 [20] of 0.204 µM. It also gave a TGI [20] of 1.47 µM, a GI50 [21] of 0.267 µM and a TGI [21] of 1280 nM. For the same compound, the GI50 [22] was 0.446 µM, the TGI [22] was 1220 nM and the GI50 [23] was 0.161 µM. For the same compound, the TGI [23] was 1190 nM, the GI50 [24] was 0.277 µM and the TGI [24] was 1380 nM. The GI50 [25] was 0.683 µM, the TGI [25] was 3.49 µM and the GI50 [26] was 1.03 µM. For the same compound, the TGI [26] was 3.49 µM, the GI50 [27] was 0.301 µM and the TGI [27] was 1190 nM. It also gave a GI50 [28] of 0.336 µM, a TGI [28] of 1.15 µM and a GI50 [29] of 1.1 µM. For the same compound, the TGI [29] was 3.61 µM, the GI50 [30] was 0.539 µM and the TGI [30] was 2260 nM. It also gave a GI50 [31] of 0.421 µM, a TGI [31] of 1.46 µM and a GI50 [32] of 1.39 µM. For the same compound, the TGI [32] was 3.75 µM, the GI50 [33] was 1.26 µM and the TGI [33] was 2540 nM. It also gave a GI50 [34] of 0.391 µM, a TGI [34] of 1510 nM and a GI50 [35] of 1.11 µM. It also gave a TGI [35] of 3.6 µM, a GI50 [36] of 0.208 µM and a TGI [36] of 909 nM. For the same compound, the GI50 [37] was 0.339 µM, the TGI [37] was 1.53 µM and the GI50 [38] was 81.6 nM. For the same compound, the TGI [38] was 348 nM, the GI50 [39] was 1.28 µM and the TGI [39] was 3.06 µM. For the same compound, the GI50 [40] was 0.506 µM, the TGI [40] was 2060 nM and the GI50 [41] was 0.929 µM. The TGI [41] was 4.69 µM, the GI50 [42] was 0.108 µM and the TGI [42] was 0.243 µM. It also gave a GI50 [43] of 0.345 µM, a TGI [43] of 2240 nM and a GI50 [44] of 0.228 µM. The TGI [44] was 1.43 µM, the GI50 [45] was 1.01 µM and the TGI [45] was 2.24 µM. It also gave a GI50 [46] of 0.159 µM, a TGI [46] of 1.23 µM and a GI50 [47] of 0.174 µM. For the same compound, the TGI [47] was 1.17 µM.

Compound CN1CCN(c2ccc(-c3cccc(CN4CCOCC4)c3)cc2NC(=O)c2c[nH]c(=O)cc2C(F)(F)F)CC1 has a GI50 [1] of 6.98 µM, a TGI [1] of 13.8 µM and a GI50 [2] of 22.2 µM. It also gave a TGI [2] greater than 68300 nM, a GI50 [3] of 12.2 µM and a TGI [3] of 24.8 µM. It also gave a GI50 [4] of 9.13 µM, a TGI [4] of 23 µM and a GI50 [5] of 14.5 µM. The TGI [5] was greater than 100 µM, the GI50 [6] was 22.8 µM and the TGI [6] was 69.6 µM. It also gave a GI50 [7] of 20.9 µM, a TGI [7] of 43.3 µM and a GI50 [8] of 30.5 µM. It also gave a TGI [8] greater than 90.4 µM, a GI50 [9] of 24.9 µM and a TGI [9] greater than 77400 nM. The GI50 [10] was 26.5 µM, the TGI [10] was greater than 68500 nM and the GI50 [11] was 17 µM. The TGI [11] was 31 µM, the GI50 [12] was 40.9 µM and the TGI [12] was greater than 100000 nM. For the same compound, the GI50 [13] was 12.3 µM, the TGI [13] was 44.8 µM and the GI50 [14] was 17.3 µM. The TGI [14] was 40.7 µM, the GI50 [15] was 18.9 µM and the TGI [15] was greater than 74400 nM. It also gave a GI50 [16] of 46.3 µM, a TGI [16] greater than 100 µM and a GI50 [17] greater than 58.1 µM. For the same compound, the TGI [17] was greater than 100 µM, the GI50 [18] was 17.3 µM and the TGI [18] was greater than 86100 nM. For the same compound, the GI50 [19] was 16 µM, the TGI [19] was 29.8 µM and the GI50 [20] was 10.4 µM. It also gave a TGI [20] of 34.2 µM, a GI50 [21] of 12.7 µM and a TGI [21] greater than 78200 nM. For the same compound, the GI50 [22] was 50.4 µM, the TGI [22] was greater than 100000 nM and the GI50 [23] was 52.5 µM. For the same compound, the TGI [23] was greater than 100000 nM, the GI50 [24] was 53.3 µM and the TGI [24] was greater than 100000 nM. It also gave a GI50 [25] of 19.5 µM, a TGI [25] greater than 100 µM and a GI50 [26] of 17.8 µM. For the same compound, the TGI [26] was 56.8 µM, the GI50 [27] was 14.7 µM and the TGI [27] was greater than 29600 nM. For the same compound, the GI50 [28] was 19 µM, the TGI [28] was 62.8 µM and the GI50 [29] was 23.1 µM. It also gave a TGI [29] greater than 88.9 µM, a GI50 [30] of 15.9 µM and a TGI [30] greater than 87600 nM. It also gave a GI50 [31] of 11.4 µM, a TGI [31] of 33.3 µM and a GI50 [32] of 27 µM. It also gave a TGI [32] greater than 94.6 µM, a GI50 [33] of 31.7 µM and a TGI [33] greater than 100000 nM. For the same compound, the GI50 [34] was 29.9 µM, the TGI [34] was greater than 63900 nM and the GI50 [35] was 12.3 µM. For the same compound, the TGI [35] was 25.3 µM, the GI50 [36] was 16.8 µM and the TGI [36] was greater than 62700 nM. The GI50 [37] was 14.2 µM, the TGI [37] was 32 µM and the GI50 [38] was greater than 62100 nM. The TGI [38] was greater than 100000 nM, the GI50 [39] was 8.59 µM and the TGI [39] was greater than 89 µM. For the same compound, the GI50 [40] was 25.6 µM, the TGI [40] was greater than 94000 nM and the GI50 [41] was 25 µM. For the same compound, the TGI [41] was greater than 100 µM, the GI50 [42] was 8.87 µM and the TGI [42] was 20.1 µM. The GI50 [43] was 37.9 µM, the TGI [43] was greater than 100000 nM and the GI50 [44] was 31.3 µM. The TGI [44] was 98.2 µM, the GI50 [45] was 13.6 µM and the TGI [45] was 26.6 µM. For the same compound, the GI50 [46] was 12.3 µM, the TGI [46] was 28.7 µM and the GI50 [47] was 12.2 µM. It also gave a TGI [47] of 34.4 µM.
